Source: patent US7138113B2, “Glycoprotein matrix compositions and methods related thereto” (Pharmachem Laboratories, Inc., priority 2001, dated 2006)

Key:
[1] = tested on: lower density lipoproteins (LDL+VLDL); assay: Inhibition of cupric ion oxidation of lower density lipoproteins (quality of antioxidant activity); settings: 6 hours
[2] = Stability of CoQ10 in a 50° C. oven open to the air (HPLC); assay type: physicochemical; settings: for Loss of CoQ10 after 36 days at 50° C. (equivalent to 3 months at room temperature) / Loss of CoQ10 after 72 days at 50° C. (equivalent to 6 months at room temperature): open to the air
Description: 100 mg of USP CoQ10 (Sigma) and a composition from Example 1 was placed in a 10 ml beaker in a 50° C. oven open to the air. The amount of CoQ10 remaining was analyzed by HPLC using a C18 column (Perkin Elmer Pecosil 5, 15 cm) and a solvent of 75% methanol and 25% isopropanol.

Row | SMILES | IC50 ([1]; concentration of selenium to inhibit LDL+VLDL oxidation 50%, cupric ion) [µM] | IC50 ([1]; LDL+VLDL oxidation, 25 μM cupric ion, 37° C., based on CoQ10 conc.) [µM] | Loss of CoQ10 at 0 days ([2]; 0 days) [%] | Loss of CoQ10 after 36 days at 50° C. (equivalent to 3 months at room temperature) ([2]; listed as USP CoQ10) [%] | Loss of CoQ10 after 36 days at 50° C. (equivalent to 3 months at room temperature) ([2]; listed as commercial CoQ10) [%] | Loss of CoQ10 after 72 days at 50° C. (equivalent to 6 months at room temperature) ([2]; listed as USP CoQ10) [%] | Loss of CoQ10 after 72 days at 50° C. (equivalent to 6 months at room temperature) ([2]; listed as commercial sample) [%]
1 | C[Se]CC[C@H](N)C(=O)O [Selenomethionine] | 27 | – | – | – | – | – | –
2 | COC1=C(OC)C(=O)C(C/C=C(\C)CC/C=C(\C)CC/C=C(\C)CC/C=C(\C)CC/C=C(\C)CC/C=C(\C)CC/C=C(\C)CC/C=C(\C)CC/C=C(\C)CCC=C(C)C)=C(C)C1=O [CoQ10 (USP), CoEnzyme Q10] | – | 1.33 | 0 | 6.8 | 6.8 | 16.8 | 16.8
